Test results published in ChEMBL document CHEMBL1134495, “3D-QSAR model of flavonoids binding at benzodiazepine site in GABAA receptors” (J Med Chem, 2001).

Biological target: GABA-A receptor; anion channel
Experiment: Binding affinity towards benzodiazepine site in GABAA receptor
Assay type: protein-complex assay

| -Log Ki | Compound |
| --- | --- |
| 5.1 | O=c1cc(-c2ccccc2F)oc2cc(O)cc(O)c12 |
| 7.38 | O=c1cc(-c2cccc(F)c2)oc2ccc(Br)cc12 |
| 7.72 | O=c1cc(-c2cccc(Br)c2)oc2ccc(Br)cc12 |
| 6.68 | O=c1cc(-c2ccccc2[N+](=O)[O-])oc2ccc(Br)cc12 |
| 6.94 | O=c1cc(-c2ccc(F)cc2)oc2ccc(Br)cc12 |
| 6.21 | O=c1cc(-c2cccc(Cl)c2)oc2ccccc12 |
| 4.11 | O=C(O)[C@H]1O[C@@H](Oc2cc3oc(-c4ccccc4)cc(=O)c3c(O)c2O)[C@H](O)[C@@H](O)[C@@H]1O [BAICALIN] |
| 5.1 | O=c1cc(-c2ccccc2Cl)oc2cc(O)cc(O)c12 |
| 7.64 | O=c1cc(-c2cccc(Br)c2)oc2ccc(Cl)cc12 |
| 7.64 | O=c1cc(-c2cccc(Cl)c2)oc2ccc(Cl)cc12 |
| 5.6 | O=c1cc(-c2ccc(F)cc2)oc2ccc(F)cc12 |
| 6.74 | O=c1cc(-c2ccc(F)cc2)oc2ccc(Cl)cc12 |
| 8.1 | O=c1cc(-c2cccc([N+](=O)[O-])c2)oc2ccc(Cl)cc12 |
| 6.38 | O=c1cc(-c2cccc(Br)c2)oc2ccccc12 |
| 6.63 | O=c1cc(-c2cccc(Br)c2)oc2ccc(F)cc12 |
| 7.15 | O=c1cc(-c2ccccc2)oc2ccc(Br)cc12 [6-BROMOFLAVONE] |
| 5.69 | COc1c(O)cc(O)c2c(=O)cc(-c3ccccc3)oc12 [WOGONIN] |
| 6.22 | O=c1cc(-c2cccc(O)c2)oc2ccc(Br)cc12 |
| 5.52 | O=c1cc(-c2ccccc2)oc2cc(O)cc(O)c12 [CHRYSIN] |
| 5.25 | O=c1cc(-c2ccccc2)oc2cc(O)c(O)c(O)c12 [BAICALEIN] |

| -Log Ki | Compound |
| --- | --- |
| 6.7 | O=c1cc(-c2cccc(Cl)c2)oc2ccc(F)cc12 |
| 5.9 | COc1ccc(-c2cc(=O)c3cc(Cl)ccc3o2)cc1 |
| 5.52 | O=c1cc(-c2ccc(O)cc2)oc2cc(O)cc(O)c12 [APIGENIN] |
| 9 | O=c1cc(-c2cccc([N+](=O)[O-])c2)oc2ccc(Br)cc12 |
| 6.04 | O=c1cc(-c2cccc(F)c2)oc2ccc(F)cc12 |
| 5.44 | O=c1cc(-c2ccc(F)cc2)oc2ccccc12 |
| 6.7 | O=c1cc(-c2ccc([N+](=O)[O-])cc2)oc2ccc(Br)cc12 |
| 6.42 | O=c1cc(-c2ccccc2F)oc2ccc(Br)cc12 |
| 7.6 | O=c1cc(-c2ccc(Br)cc2)oc2ccc([N+](=O)[O-])cc12 |
| 5.68 | COc1ccc(-c2cc(=O)c3cc(Br)ccc3o2)cc1 |
| 6.93 | O=c1cc(-c2cccc(F)c2)oc2ccc(Cl)cc12 |
| 4.92 | O=c1cc(-c2ccc(O)cc2)oc2cc(O)c(O)c(O)c12 [SCUTELLAREIN] |
| 6.38 | O=c1cc(-c2ccccc2F)oc2ccc(Cl)cc12 |
| 5.45 | O=c1cc(-c2cccc(F)c2)oc2ccccc12 |
| 6.07 | O=c1cc(-c2cccc(O)c2)oc2ccc(Cl)cc12 |
| 6 | O=c1cc(-c2ccccc2)oc2ccccc12 [FLAVONE] |
| 6.15 | O=c1cc(-c2ccccc2)oc2c(Br)c(O)c(Br)c(O)c12 |
| 7.77 | O=c1cc(-c2cccc(Cl)c2)oc2ccc(Br)cc12 |
| 6.74 | O=c1cc(-c2cccc([N+](=O)[O-])c2)oc2ccc(F)cc12 |
| 5.6 | O=c1cc(-c2cccc(O)c2)oc2ccc(F)cc12 |

| Compound | -Log Ki |
| --- | --- |
| O=c1cc(-c2cccc([N+](=O)[O-])c2)oc2ccc([N+](=O)[O-])cc12 | 7.92 |
| COc1c(O)cc2oc(-c3ccc(O)cc3)cc(=O)c2c1O [HISPIDULIN] | 6 |
